Data: paper PMC8880385 (Pharmaceuticals, 2022)
pIC50: −log10 of the molar value. Entries after “also recorded” stand apart in the source; their conditions may differ.

Columns and labels:
O. ochengi adult females = experiment: O. ochengi adult female viability (MTT) assay; assay type: cell-based; settings: Onchocerca ochengi, 168 h; Day 7, MTT; read-out: O. ochengi Adult Females Inhibition of Survival Day 7 IC50
Description: As humans are the only hosts for O. volvulus which are unavailable for screening, drug discovery relies on the surrogate filarial parasites Brugia spp. and cattle Onchocerca spp. Prioritized compounds from the Brugia worm screens were further tested with female and male adult O. ochengi as well as O. ochengi and L. loa mf.
For these assays, O. ochengi adults were extracted from the subcutaneous nodules of infected cow skins purchased from the local slaughterhouse (Douala, Littoral Region, Cameroon) and incubated in 4 mL complete culture media comprised of RPMI-1640 (Sigma-Aldrich), 5% newborn calf serum, 200 units/mL penicillin, 200 μg/mL streptomycin and 2.5 μg/mL amphotericin B (Sigma-Aldrich) in 12-well plates overnight to validate sterility prior to the assays. Four to eight O. ochengi adult masses were treated individually the following day with a serial dilution of each compound, and controls were treated with 1% DMSO. While in culture, the male worms normally egress from the nodules into the surrounding media and thus can be monitored in parallel for motility. The O. ochengi adult masses were incubated at 37 °C with 5% CO2 for the duration of the assay. Male motility within each well was visually scored every day and over 5 days after compound addition, and female viability within the nodules was assessed by MTT after 7 days as previously described. The O. ochengi adult masses containing female worms were individually placed in wells of a 48-well plate with 0.5 mL of 0.5 mg/mL MTT in PBS and incubated at 37 °C for 30 min. […] Prism 4.0 for Windows was used to calculate IC50s.

O. volvulus pre-adult L5 = experiment: Ov L5 viability by endpoint MTT assay; assay type: cell-based, Onchocerca volvulus; settings: 1 µM
Protocol: Briefly, Ov L3 larvae were cultured to the pre-adult/L5 stage in vitro as described by Voronin et al., 2019 [45]. Once larvae reached the L5 stage (after at least 70 days in culture), 8–10 Ov L5 were moved to new transwell inserts in a 24-well plate containing 0.5 mL Ov L4-CMS media seeded with a 3 × 10^4/well Human Umbilical Vein Endothelial Cells (HUVEC) monolayer. Duplicate wells were treated with 1 and/or 10 µM of compound. Ov L5 were exposed to compounds for 14 days (exchanged 50% of media with fresh compound every two days) and then cultured with new media without compound, exchanging 50% of media every 2–3 days, up to day 36. Control Ov L5 were treated with 0.05% DMSO. […] Motility was assessed visually and ranked on a 0–100% scale every 2–3 days over the course of the assay. At the end of the motility assay, Ov L5 viability was measured by 3-(4,5-dimethylthiazol-2-yl)-2,5-diphenyltetrazolium bromide (MTT) assay. Ov L5 were incubated with 0.1% MTT in PBS at 37 °C for 1 h then visually inspected for blue coloration indicating MTT reduction. Worms were considered dead if <50% of the worm was stained blue, and worms were considered alive if >50% of the worm was stained blue.

[1] = test system: Brugia pahangi adult females; experiment: In vitro motility assay with adult female Brugia pahangi (Worminator)
O. ochengi mf = experiment: O. ochengi microfilariae motility assay; assay type: cell-based, Onchocerca ochengi; settings: Onchocerca ochengi, 120 h; 10 µM, Day 5
Protocol: To assess the effects of the compounds on O. ochengi mf, the mf were harvested from infected cow skin and cultured (10–15 mf per well) in 100 µL media in 96-well plates with a confluent feeder layer of monkey kidney epithelial cells (MK2) as previously described. […] All compounds were also counter-screened with L. loa mf collected from infected individuals with approval from the University of Buea (IRB approval # 964-19). Mf were separated from blood cells using a Percoll gradient as previously described and set up for assays (10–15 mf per well).

[2] = test system: Brugia pahangi female worms; experiment: Ex vivo microfilarial release and embryograms of female worms from treated gerbils; assay type: in vivo; settings: females from gerbils treated IP 1 mg/kg
Protocol: To test the effects of the compounds on female worm fertility, all surviving female worms were examined ex vivo to quantify the amount of mf released and profile the various stages of embryonic development within the uteri of individual female worms. After necropsy, female worms were incubated in individual wells of a 24-well plate with 2 mL Brugia culture media at 37 °C and 5% CO2. After 24 h, the number of mf released by each adult female was determined by counting the mf in a 0.5 mL sample of the media and multiplying by 4 to calculate the total number of mf. Additionally, embryogram analyses on the individual female worms was performed as described. […] The embryonic developmental stages (eggs, embryos, pre-mf and mf) were determined in two 10 μL aliquots using a compound microscope and hemocytometer. A minimum of 200 events were assessed from each female worm and at least 3 females were analyzed per animal from at least 3 animals per treatment group. The intra-uterine embryogram was expressed as the relative proportions of different stages of development: eggs, embryos, pre-mf, stretched mf and deformed embryos in the total number of events.
Worm burden, peritoneal mf counts, overnight mf sheds and qPCR data were analyzed using a Kruskal–Wallis test followed by Dunn’s multiple comparison. […] All statistical analyses were determined using Prism 8 version 8.2.0(272).

Cc1ccc2c(ccc(/C=C/c3c(C)nn(-c4ccccc4)c3C)[n+]2C)c1.[I-] [Analog 06, 2-[(E)-2-(3,5-dimethyl-1-phenyl-1H-pyrazol-4-yl)ethenyl]-1,6-dimethylquinolin-1-ium iodide] was tested, and the pIC50 (O. ochengi adult females) was 5.52, the “O. volvulus L5 % inhibition of viability Day 37 (MTT assay)” value (O. volvulus pre-adult L5) was 88% and the “Brugia Adult Females Inhibition of Motility Day 3 @ 1 µM” value ([1]; 1 µM, Day 3, 1 µM) was 71%. For the same compound, the inhibition at 1 µM ([1]; Brugia pahangi, 72 h, read-out: Brugia Adult Females Inhibition of Motility Day 3 @ 1 µM, 1 µM, Day 3) was greater than 70%, the pIC50 ([1]; Brugia pahangi, 72 h, read-out: Brugia Adult Females Inhibition of Motility Day 3 IC50) was 6.13 and the “Brugia Adult Females Inhibition of Motility Day 3 IC50” value ([1]; Day 3) was “sub-micromolar range”. The inhibition at 10 µM (O. ochengi mf) was 46%, the “Deformed embryos in gonads of female worms (embryogram) vs vehicle” value [2] was “statistically significant increase in the number of deformed embryos” and the “Mf released by female worms after 24 h ex vivo (overnight shed) vs vehicle” value [2] was “significantly lower numbers of mf; also recorded: significantly reduced”.
